{
  "source": "patent US12240853B2",
  "about": "“Compounds useful in HIV therapy” (GlaxoSmithKline Intellectual Property (No.2) Limited, priority 2019, dated 2025)",
  "assay": "Example 18 rat PK studies (SC and IM)",
  "format": "in vivo, Wistar Han rats",
  "settings": "single SC or IM injection, 20 mg parent/kg",
  "from_the_text": "Example 18 referenced herein was made in accordance with Synthesis B. A total of seven naïve male Wistar Han rats, 250-275 g, were received from the supplier equipped with a surgically-implanted jugular vein catheter (JVC) to facilitate blood sample collection during the first several days of the study. Following an acclimation period, the animals were assigned to the study based on acceptable health as determined by a staff veterinarian and catheter patency. Six animals were placed into two groups of 3 rats per group. Fasting of the animals before or after dosing was not required.\nOn Day 1 each animal in Group 1 received a single intrascapular subcutaneous injection of prepared test article at a target dose level of 20 mg parent/kg and at a dose volume of 0.49 mL/kg. Each animal in Group 2 received a single intramuscular injection of prepared test article into a thigh muscle at a target dose level of 20 mg parent/kg and at a dose volume of 0.49 mL/kg. The animals were manually restrained for dosing and were not sedated. […]\nInterim blood samples for PK (Groups 1A and 2A) were collected from the jugular vein catheter or by venipuncture of a jugular vein if the catheter was not patent. […] The PK plasma samples were analyzed every 1-2 weeks by the Testing Facility to determine the concentration of prodrug and parent using an LC-MS/MS Research Grade Assay (RGA-1) with sensitivity to 0.1 ng/mL. […]",
  "data": [
    {"compound": "C#C[C@]1(COC(=O)CCCCCCCCC)O[C@@H](n2cnc3c(N)nc(F)nc32)C[C@@H]1OC(=O)CCCCCCCCC", "note": "[Example 18, (2R,3S,5R)-5-(6-amino-2-fluoro-9H-purin-9-yl)-2-((decanoyloxy)methyl)-2-ethynyltetrahydrofuran-3-yl Decanoate]", "values": [
      {"measurement": "Clinical observations and dose site reactions", "value": "All animals appeared normal at the time of each observation and no dose site reactions were observed"}
    ]}
  ]
}
